# Data reported in the kinase profiling compilation of Christmann-Franck et al. (2016).
# Columns and labels:
# Assay in all cases: radiometric filter-binding kinase assay
# [1] = target: RPS6KA5 KD1 KD2 (human) (UniProt O75582)
# [2] = target: MAPK9 (human) (UniProt P45984)
# [3] = target: CSNK1D (human) (UniProt P48730)
# [4] = target: IKBKB (human) (UniProt O14920)
# [5] = target: MAP3K5 (human) (UniProt Q99683)
# [6] = target: CSK (human) (UniProt P41240)
# [7] = system: PAK2 (human), Q13177 [T402E]
# [8] = target: HIPK3 (human) (UniProt Q9H422)
# [9] = target: EEF2K (human) (UniProt O00418)
# [10] = target: BRSK2 (human) (UniProt Q8IWQ3)
# [11] = target: MAP2K2 (human) (UniProt P36507)
# [12] = target: PAK7 (human) (UniProt Q9P286)
# Chain of PAK7 (human) (Q9P286 whole entry, looked up): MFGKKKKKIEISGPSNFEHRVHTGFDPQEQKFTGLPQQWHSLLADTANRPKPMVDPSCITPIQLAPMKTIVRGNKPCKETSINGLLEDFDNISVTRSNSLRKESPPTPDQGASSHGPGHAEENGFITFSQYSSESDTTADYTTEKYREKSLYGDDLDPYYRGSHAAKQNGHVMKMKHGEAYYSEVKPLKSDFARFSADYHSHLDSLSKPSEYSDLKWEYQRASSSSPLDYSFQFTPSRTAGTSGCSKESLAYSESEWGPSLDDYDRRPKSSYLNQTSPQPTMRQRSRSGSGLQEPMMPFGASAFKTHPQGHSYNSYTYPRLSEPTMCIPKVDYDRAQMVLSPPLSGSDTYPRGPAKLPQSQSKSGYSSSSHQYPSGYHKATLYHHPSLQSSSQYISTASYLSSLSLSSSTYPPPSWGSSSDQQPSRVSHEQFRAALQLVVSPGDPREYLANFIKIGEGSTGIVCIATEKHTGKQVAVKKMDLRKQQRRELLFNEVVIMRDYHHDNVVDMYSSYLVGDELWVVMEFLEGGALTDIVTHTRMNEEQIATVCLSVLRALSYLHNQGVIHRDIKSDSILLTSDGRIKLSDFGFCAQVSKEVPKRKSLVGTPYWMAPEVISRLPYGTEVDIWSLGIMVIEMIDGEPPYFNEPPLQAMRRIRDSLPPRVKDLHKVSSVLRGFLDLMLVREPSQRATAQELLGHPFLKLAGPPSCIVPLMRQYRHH
# [13] = target: AURKA (human) (UniProt O14965)
# [14] = target: MAPK1 (human) (UniProt P28482)
# [15] = target: RPS6KA3 KD1 KD2 (human) (UniProt P51812)
# [16] = target: MAPK3 (human) (UniProt P27361)
# [17] = target: MAP2K6 (human) (UniProt P52564)
# [18] = target: MAP3K1 (human) (UniProt Q13233)
# [19] = target: TBK1 (human) (UniProt Q9UHD2)
# [20] = target: GSK3B (human) (UniProt P49841)
# [21] = target: EPHA4 (human) (UniProt P54764)
# Chain of EPHA4 (human) (P54764 whole entry, looked up): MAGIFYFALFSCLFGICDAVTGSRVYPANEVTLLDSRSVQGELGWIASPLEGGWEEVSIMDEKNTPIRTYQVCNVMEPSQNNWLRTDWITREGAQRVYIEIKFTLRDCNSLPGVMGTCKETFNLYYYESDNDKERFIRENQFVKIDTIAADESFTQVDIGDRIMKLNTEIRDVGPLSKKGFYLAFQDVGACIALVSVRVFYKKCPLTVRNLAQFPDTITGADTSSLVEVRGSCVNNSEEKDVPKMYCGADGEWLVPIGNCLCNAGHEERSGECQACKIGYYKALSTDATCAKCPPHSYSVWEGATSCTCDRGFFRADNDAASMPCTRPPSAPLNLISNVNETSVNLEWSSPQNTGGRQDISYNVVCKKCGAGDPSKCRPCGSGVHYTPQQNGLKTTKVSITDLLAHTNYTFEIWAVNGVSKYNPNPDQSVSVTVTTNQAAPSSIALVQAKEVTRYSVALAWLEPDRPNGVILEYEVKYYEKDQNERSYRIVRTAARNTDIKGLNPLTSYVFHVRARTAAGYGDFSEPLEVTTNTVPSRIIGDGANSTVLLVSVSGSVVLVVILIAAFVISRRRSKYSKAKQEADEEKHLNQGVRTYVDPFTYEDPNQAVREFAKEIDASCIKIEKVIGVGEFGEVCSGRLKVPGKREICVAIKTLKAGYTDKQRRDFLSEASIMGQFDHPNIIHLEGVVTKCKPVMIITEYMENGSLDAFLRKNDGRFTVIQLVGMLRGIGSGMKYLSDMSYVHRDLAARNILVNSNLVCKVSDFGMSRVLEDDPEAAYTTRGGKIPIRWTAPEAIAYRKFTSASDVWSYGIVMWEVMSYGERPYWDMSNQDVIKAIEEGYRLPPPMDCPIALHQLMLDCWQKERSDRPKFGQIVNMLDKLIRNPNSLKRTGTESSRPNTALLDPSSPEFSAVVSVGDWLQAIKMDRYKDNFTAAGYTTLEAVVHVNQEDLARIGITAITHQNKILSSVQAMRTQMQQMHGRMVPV
# [22] = target: MKNK2 (human) (UniProt Q9HBH9)
# [23] = target: SRPK1 (human) (UniProt Q96SB4)
# Chain of SRPK1 (human) (Q96SB4 whole entry, looked up): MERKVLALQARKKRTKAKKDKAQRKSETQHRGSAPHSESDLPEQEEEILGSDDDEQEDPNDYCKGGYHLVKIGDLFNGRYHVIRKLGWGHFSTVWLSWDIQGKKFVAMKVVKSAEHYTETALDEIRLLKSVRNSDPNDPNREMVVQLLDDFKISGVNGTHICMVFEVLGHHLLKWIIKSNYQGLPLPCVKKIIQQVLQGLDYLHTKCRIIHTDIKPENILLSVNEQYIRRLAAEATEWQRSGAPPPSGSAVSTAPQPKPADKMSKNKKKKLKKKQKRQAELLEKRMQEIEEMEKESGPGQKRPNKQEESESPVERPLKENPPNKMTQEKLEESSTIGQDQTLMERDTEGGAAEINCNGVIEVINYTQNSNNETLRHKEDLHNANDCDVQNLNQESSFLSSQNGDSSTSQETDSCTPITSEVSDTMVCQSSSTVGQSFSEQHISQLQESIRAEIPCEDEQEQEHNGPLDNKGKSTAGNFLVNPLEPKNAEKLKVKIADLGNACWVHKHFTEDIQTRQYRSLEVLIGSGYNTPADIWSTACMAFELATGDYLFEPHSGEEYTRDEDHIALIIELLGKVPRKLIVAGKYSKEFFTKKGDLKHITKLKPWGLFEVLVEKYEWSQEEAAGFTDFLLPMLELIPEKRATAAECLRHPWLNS
# [24] = target: FGFR1 (human) (UniProt P11362)
# Chain of FGFR1 (human) (P11362 whole entry, looked up): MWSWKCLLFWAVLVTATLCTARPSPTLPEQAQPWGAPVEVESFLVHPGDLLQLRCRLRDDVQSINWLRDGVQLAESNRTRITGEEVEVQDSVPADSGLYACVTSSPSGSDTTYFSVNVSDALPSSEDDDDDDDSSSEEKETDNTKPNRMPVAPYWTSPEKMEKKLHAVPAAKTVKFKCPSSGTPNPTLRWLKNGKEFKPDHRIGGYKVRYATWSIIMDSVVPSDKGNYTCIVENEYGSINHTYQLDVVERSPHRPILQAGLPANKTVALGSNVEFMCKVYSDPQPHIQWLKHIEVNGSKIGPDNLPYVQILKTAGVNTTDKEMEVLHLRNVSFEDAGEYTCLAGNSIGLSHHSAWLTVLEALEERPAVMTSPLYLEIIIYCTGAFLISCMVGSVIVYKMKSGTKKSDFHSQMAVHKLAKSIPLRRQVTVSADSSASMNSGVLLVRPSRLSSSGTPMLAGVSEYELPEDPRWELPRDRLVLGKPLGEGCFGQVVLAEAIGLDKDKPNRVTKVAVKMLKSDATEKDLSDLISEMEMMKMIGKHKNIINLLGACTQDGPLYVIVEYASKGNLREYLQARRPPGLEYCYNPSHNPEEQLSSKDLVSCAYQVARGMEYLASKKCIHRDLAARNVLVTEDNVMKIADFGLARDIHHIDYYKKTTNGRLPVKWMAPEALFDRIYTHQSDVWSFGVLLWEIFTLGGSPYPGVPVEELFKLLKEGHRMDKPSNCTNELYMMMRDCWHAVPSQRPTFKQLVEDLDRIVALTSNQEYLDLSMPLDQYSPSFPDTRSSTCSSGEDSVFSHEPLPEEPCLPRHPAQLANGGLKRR
# [25] = target: STK11 CAB39 STRADA (human) (UniProt Q9Y376+Q7RTN6+Q15831)
# [26] = target: MAPKAPK3 (human) (UniProt Q16644)
# [27] = target: PLK1 (human) (UniProt P53350)
# [28] = target: BRSK1 (human) (UniProt Q8TDC3)
# Chain of BRSK1 (human) (Q8TDC3 whole entry, looked up): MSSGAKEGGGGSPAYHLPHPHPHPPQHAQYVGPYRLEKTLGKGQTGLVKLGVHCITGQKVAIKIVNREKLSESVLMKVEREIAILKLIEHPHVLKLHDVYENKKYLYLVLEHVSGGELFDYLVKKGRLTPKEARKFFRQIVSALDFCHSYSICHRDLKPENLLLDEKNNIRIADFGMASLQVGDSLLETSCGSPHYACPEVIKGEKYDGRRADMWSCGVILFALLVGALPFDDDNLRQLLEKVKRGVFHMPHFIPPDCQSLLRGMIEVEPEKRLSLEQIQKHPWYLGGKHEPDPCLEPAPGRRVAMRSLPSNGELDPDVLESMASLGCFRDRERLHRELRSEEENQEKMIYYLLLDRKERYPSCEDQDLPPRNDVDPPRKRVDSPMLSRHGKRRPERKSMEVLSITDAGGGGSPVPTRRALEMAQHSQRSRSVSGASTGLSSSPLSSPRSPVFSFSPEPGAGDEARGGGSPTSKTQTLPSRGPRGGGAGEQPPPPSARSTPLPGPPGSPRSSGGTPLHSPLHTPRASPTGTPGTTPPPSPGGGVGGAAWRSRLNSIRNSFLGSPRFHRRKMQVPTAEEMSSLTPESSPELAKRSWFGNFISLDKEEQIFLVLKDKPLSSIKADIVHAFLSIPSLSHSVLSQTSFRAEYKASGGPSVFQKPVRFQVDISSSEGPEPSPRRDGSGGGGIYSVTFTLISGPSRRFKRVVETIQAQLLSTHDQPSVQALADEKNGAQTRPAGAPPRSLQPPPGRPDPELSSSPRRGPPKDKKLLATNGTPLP
# [29] = target: NEK6 (human) (UniProt Q9HC98)
# [30] = target: MAPK8 (human) (UniProt P45983)
# [31] = target: MAPK15 (human) (UniProt Q8TD08)
# [32] = target: HIPK1 (human) (UniProt Q86Z02)
# [33] = system: AKT1 (human), P31749 [S473D]
# Chain of AKT1 (human), P31749 [S473D] (P31749 whole entry S473D, looked up): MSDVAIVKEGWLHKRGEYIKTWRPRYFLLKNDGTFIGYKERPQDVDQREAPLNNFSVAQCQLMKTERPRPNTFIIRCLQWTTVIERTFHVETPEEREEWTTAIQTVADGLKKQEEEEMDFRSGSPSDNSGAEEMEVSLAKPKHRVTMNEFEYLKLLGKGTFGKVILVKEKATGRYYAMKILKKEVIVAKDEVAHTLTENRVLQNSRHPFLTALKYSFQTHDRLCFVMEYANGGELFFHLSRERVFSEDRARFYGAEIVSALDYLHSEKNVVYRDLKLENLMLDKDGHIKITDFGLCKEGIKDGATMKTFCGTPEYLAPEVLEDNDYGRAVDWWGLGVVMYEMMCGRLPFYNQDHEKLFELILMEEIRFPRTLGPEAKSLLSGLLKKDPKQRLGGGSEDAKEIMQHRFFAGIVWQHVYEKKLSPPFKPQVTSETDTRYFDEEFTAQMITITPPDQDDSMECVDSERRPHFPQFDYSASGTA
# [34] = target: ERBB4 (human) (UniProt Q15303)
# [35] = target: BTK (human) (UniProt Q06187)
# Chain of CSK (human) (P41240 whole entry, looked up): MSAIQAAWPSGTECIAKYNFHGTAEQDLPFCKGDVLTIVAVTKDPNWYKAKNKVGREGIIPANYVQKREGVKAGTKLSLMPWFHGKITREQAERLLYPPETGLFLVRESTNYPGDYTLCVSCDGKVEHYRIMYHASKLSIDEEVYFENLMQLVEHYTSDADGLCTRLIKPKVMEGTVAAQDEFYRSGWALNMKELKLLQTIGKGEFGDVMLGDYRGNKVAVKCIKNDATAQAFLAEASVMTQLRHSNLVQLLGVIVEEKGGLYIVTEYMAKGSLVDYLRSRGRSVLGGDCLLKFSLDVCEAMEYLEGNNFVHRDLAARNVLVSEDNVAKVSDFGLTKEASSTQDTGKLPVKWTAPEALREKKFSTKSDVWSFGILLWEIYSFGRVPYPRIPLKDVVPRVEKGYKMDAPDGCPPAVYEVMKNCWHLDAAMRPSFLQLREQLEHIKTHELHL
smiles,measurement,setting,value
O=C(N[C@@H](COc1ccc2[nH]c(=O)[nH]c2c1)c1ccccc1)c1cccn(Cc2ccc(F)c(F)c2)c1=O,residual activity,[1]; compound 0.1 µM,101%
same,residual activity,[1]; compound 1.0 µM,104%
same,residual activity,[1]; compound 10.0 µM,106%
same,residual activity,[2]; compound 0.1 µM,93%
same,residual activity,[2]; compound 1.0 µM,97%
same,residual activity,[2]; compound 10.0 µM,95%
same,residual activity,[3]; compound 0.1 µM,103%
same,residual activity,[3]; compound 1.0 µM,110%
same,residual activity,[3]; compound 10.0 µM,113%
same,residual activity,[4]; compound 0.1 µM,102%
same,residual activity,[4]; compound 1.0 µM,99%
same,residual activity,[4]; compound 10.0 µM,99%
same,residual activity,[5]; compound 0.1 µM,110%
same,residual activity,[5]; compound 1.0 µM,105%
same,residual activity,[5]; compound 10.0 µM,92%
same,residual activity,[6]; compound 0.1 µM,109%
same,residual activity,[6]; compound 1.0 µM,98%
same,residual activity,[6]; compound 10.0 µM,101%
same,residual activity,[7]; compound 0.1 µM,113%
same,residual activity,[7]; compound 1.0 µM,109%
same,residual activity,[7]; compound 10.0 µM,79%
same,residual activity,[8]; compound 0.1 µM,99%
same,residual activity,[8]; compound 1.0 µM,108%
same,residual activity,[8]; compound 10.0 µM,91%
same,residual activity,[9]; compound 0.1 µM,95%
same,residual activity,[9]; compound 1.0 µM,103%
same,residual activity,[9]; compound 10.0 µM,107%
same,residual activity,[10]; compound 0.1 µM,118%
same,residual activity,[10]; compound 1.0 µM,90%
same,residual activity,[10]; compound 10.0 µM,79%
same,residual activity,[11]; compound 0.1 µM,121%
same,residual activity,[11]; compound 1.0 µM,124%
same,residual activity,[11]; compound 10.0 µM,135%
same,residual activity,[12]; compound 0.1 µM,104%
same,residual activity,[12]; compound 1.0 µM,92%
same,residual activity,[12]; compound 10.0 µM,64%
same,residual activity,[13]; compound 0.1 µM,110%
same,residual activity,[13]; compound 1.0 µM,110%
same,residual activity,[13]; compound 10.0 µM,103%
same,residual activity,[14]; compound 0.1 µM,102%
same,residual activity,[14]; compound 1.0 µM,100%
same,residual activity,[14]; compound 10.0 µM,101%
same,residual activity,[15]; compound 0.1 µM,102%
same,residual activity,[15]; compound 1.0 µM,98%
same,residual activity,[15]; compound 10.0 µM,85%
same,residual activity,[16]; compound 0.1 µM,93%
same,residual activity,[16]; compound 1.0 µM,101%
same,residual activity,[16]; compound 10.0 µM,95%
same,residual activity,[17]; compound 0.1 µM,94%
same,residual activity,[17]; compound 1.0 µM,89%
same,residual activity,[17]; compound 10.0 µM,108%
same,residual activity,[18]; compound 0.1 µM,110%
same,residual activity,[18]; compound 1.0 µM,114%
same,residual activity,[18]; compound 10.0 µM,112%
same,residual activity,[19]; compound 0.1 µM,109%
same,residual activity,[19]; compound 1.0 µM,132%
same,residual activity,[19]; compound 10.0 µM,102%
same,residual activity,[20]; compound 0.1 µM,97%
same,residual activity,[20]; compound 1.0 µM,96%
same,residual activity,[20]; compound 10.0 µM,64%
same,residual activity,[21]; compound 0.1 µM,95%
same,residual activity,[21]; compound 1.0 µM,113%
same,residual activity,[21]; compound 10.0 µM,107%
same,residual activity,[22]; compound 0.1 µM,117%
same,residual activity,[22]; compound 10.0 µM,112%
same,residual activity,[23]; compound 0.1 µM,107%
same,residual activity,[23]; compound 1.0 µM,114%
same,residual activity,[23]; compound 10.0 µM,101%
same,residual activity,[24]; compound 0.1 µM,96%
same,residual activity,[24]; compound 1.0 µM,97%
same,residual activity,[24]; compound 10.0 µM,75%
same,residual activity,[25]; compound 0.1 µM,102%
same,residual activity,[25]; compound 1.0 µM,100%
same,residual activity,[25]; compound 10.0 µM,93%
same,residual activity,[26]; compound 0.1 µM,116%
same,residual activity,[26]; compound 1.0 µM,109%
same,residual activity,[26]; compound 10.0 µM,74%
same,residual activity,[27]; compound 0.1 µM,118%
same,residual activity,[27]; compound 1.0 µM,107%
same,residual activity,[27]; compound 10.0 µM,121%
same,residual activity,[28]; compound 0.1 µM,118%
same,residual activity,[28]; compound 1.0 µM,102%
same,residual activity,[28]; compound 10.0 µM,92%
same,residual activity,[29]; compound 0.1 µM,104%
same,residual activity,[29]; compound 1.0 µM,100%
same,residual activity,[29]; compound 10.0 µM,98%
same,residual activity,[30]; compound 0.1 µM,100%
same,residual activity,[30]; compound 10.0 µM,114%
same,residual activity,[31]; compound 0.1 µM,92%
same,residual activity,[31]; compound 1.0 µM,89%
same,residual activity,[31]; compound 10.0 µM,94%
same,residual activity,[32]; compound 0.1 µM,99%
same,residual activity,[32]; compound 1.0 µM,100%
same,residual activity,[32]; compound 10.0 µM,86%
same,residual activity,[33]; compound 0.1 µM,96%
same,residual activity,[33]; compound 1.0 µM,97%
same,residual activity,[33]; compound 10.0 µM,90%
same,residual activity,[34]; compound 0.1 µM,102%
same,residual activity,[34]; compound 1.0 µM,100%
same,residual activity,[34]; compound 10.0 µM,98%
same,residual activity,[35]; compound 0.1 µM,109%
same,residual activity,[35]; compound 1.0 µM,108%
same,residual activity,[35]; compound 10.0 µM,110%
